In patent publication US7163940B2, “Pyrazolopyridinyl pyrimidine therapeutic compounds” (SmithKline Beecham Corporation, priority 2000, dated 2007) one finds IC50 data, which are given here for 25 compounds.

The term IC50 denotes the concentration that inhibits the measured activity by half.

The structures appear in SMILES notation. Where a name gives a salt, the structure may show the parent alone. A value given as a limit tells only on which side of the number the result lay.

The subject of this experiment is HSV-1. As to the kind of experiment: HSV-1 replication in infected Vero 76 cells, viral DNA hybridization capture assay. It counts as cell-based. Particulars: Human alphaherpesvirus 1, Vero 76, HSV-1, Vero 76 cells, MOI=0.001, 40–48 hours incubation. As for the experimental part: Vero 76 cells were maintained in MEM with Earle's salts, L-glutamine, 8% FBS (Hyclone, A-1111-L) and 100 units/mL Penicillin-100 μg/mL Streptomycin. For assay conditions, FBS was reduced to 2%. Cells are seeded into 96-well tissue culture plates at a density of 5×10^4 cells/well after being incubated for 45 min at 37° C. in the presence of HSV-1 or HSV-2 (MOI=0.001). Test compounds are added to the wells and the plates are incubated at 37° C. for 40–48 hours. Cell lysates are prepared as follows: media was removed and replaced with 150 μL/well 0.2 N NaOH with 1% Igepal CA 630 or NP-40. Plates were incubated up to 14 days at room temperature in a humidified chamber to prevent evaporation. • (b) Preparation of Detection DNA.
For the detection probe, a gel-purified, digoxigenin-labeled, […] PCR fragment of the HSV UL-15 sequence was utilized. PCR conditions included 0.5 μM primers, 180 μM dTP, 20 μM dUTP-digoxigenin (Boehringer Mannheim 1558706), 200 μM each of dATP, dCTP, and dGTP, 1×PCR Buffer II (Perkin Elmer), 2.5 mM MgCl2, 0.025 units/μL of AmpliTaq Gold polymerase (Perkin Elmer), and 5 ng of gel-purified HSV DNA per 100 μL. Extension conditions were 10 min at 95° C., followed by 30 cycles of 95° C. for 1 min, 55° C. for 30 sec, and 72° C. for 2 min. The amplification was completed with a 10-min incubation at 72° C. Primers were selected to amplify a 728 bp probe spanning a section of the HSV1 UL15 open reading frame (nucleotides 249–977). Single-stranded transcripts were purified with Promega M13 Wizard kits. The final product was mixed 1:1 with a mixture of 6 M GuSCN, 100 mM EDTA and 200 μg/mL herring sperm DNA and stored at 4° C. • (c) Preparation of Capture Plates.
The capture DNA plasmid (HSV UL13 region in pUC) was linearized by cutting with Xba I, denatured for 15 min at 95° C. and diluted immediately into Reacti-Bind DNA Coating Solution (Pierce, 17250, diluted 1:1 with TE buffer, pH 8) at 1 ng/μL 75 μL/well were added to Corning (#3922 or 9690) white 96-well plates and incubated at room temperature for at least 4 hrs before washing twice with 300 μL/well 0.2×SSC/0.05% Tween-20 (SSC/T buffer). The plates were then incubated overnight at room temperature with 150 μL/well 0.2 N NaOH, 1% IGEPAL and 10 μg/mL herring sperm DNA. • (d) Hybridization.
Twenty-seven (27) μL of cell lysate was combined with 45 μL of hybridization solution (final concentration: 3M GuSCN, 50 mM EDTA, 100 μg/ml salmon sperm DNA, 5× Denhardt's solution, 0.25×APE, and 5 ng of the digoxigenin-labeled detection probe). APE is 1.5 M NH4-acetate, 0.15 M ammonium phosphate, and 5 mM EDTA adjusted to pH 6.0. Mineral oil (50 μL) was added to prevent evaporation. The hybridization plates were incubated at 95° C. for 10 minutes to denature the DNA, then incubated at 42° C. overnight. The wells were washed 6× with 300 μL/well SSC/T buffer then incubated with 75 μL/well anti-digoxigenin-HRP-conjugated antibody (Boehringer Mannheim 1207733, 1:5000 in TE) for 30 min at room temperature. The wells were washed 6× with 300 μL/well with PBS/0.05% Tween-20 before 75 μL/well SuperSignal LBA substrate (Pierce) was added. The plates were incubated at room temperature for 30 minutes and chemiluminescence was measured in a Wallac Victor reader. • e) Results.
The following results were obtained for HSV-1.
On to `CCCCNc1cccc2c(-c3ccnc([S+](C)[O-])n3)c(-c3ccc(F)cc3)nn12` (stereo not drawn) [Example 37, N-Butyl-2-(4-fluorophenyl)-3-[2-(methylsulfinyl)-4-pyrimidinyl]-pyrazolo[1,5-α]pyridin-7-amine], for which the IC50 came out at 15 µM.

Compound `Fc1ccc(-c2nn3c(Cl)cccc3c2-c2ccnc(NC3CC3)n2)cc1` [Example 79, 4-[7-Chloro-2-(4-fluorophenyl)pyrazolo[1,5-α]pyridin-3-yl]-N-cyclopropylpyrimidin-2-amine] gave a 50% inhibitory concentration (IC50) of over 20 µM.

`Fc1ccc(-c2nn3c(NC4CCCC4)cccc3c2-c2ccnc(NCCCN3CCOCC3)n2)cc1` [Example 13, N-Cyclopentyl-2-(4-fluorophenyl)-3-(2-{[3-(4-morpholinyl)propyl]-amino}-4-pyrimidinyl)pyrazolo[1,5-α]pyridin-7-amine] gave an IC50 of 6 µM.

`O=C(O)c1cc(-c2c(-c3ccc(F)cc3)nn3c(Cl)cccc23)nc(NC2CCCC2)n1` [Example 27, 6-[7-Chloro-2-(4-fluorophenyl)pyrazolo[1,5-α]pyridin-3-yl]-2-(cyclopentylamino)-4-pyrimidinecarboxylic acid] displayed an IC50 of 1.3 µM.

In turn, `Cc1cc(-c2c(-c3ccc(F)cc3)nn3c(N)cccc23)nc(NC2CCCC2)n1` [Example 72, 3-[2-(Cyclopentylamino)-6-methylpyrimidin-4-yl]-2-(4-fluorophenyl)pyrazolo[1,5-α]pyridin-7-amine] displayed an IC50 of 4.4 µM.

On to `COC(=O)CNc1cccc2c(-c3cc(C)nc(NC4CCCC4)n3)c(-c3ccc(F)cc3)nn12` [Example 24, Methyl {[3-[2-(cyclopentylamino)-6-methyl-4-pyrimidinyl]-2-(4-fluorophenyl)pyrazolo[1,5-α]pyridin-7-yl]amino}acetate], for which half-maximal inhibition (IC50) required 10 µM.

On to `CCCCNc1cccc2c(-c3ccnc(NC4CCCC4)n3)c(-c3ccc(F)cc3)nn12` [Example 6, N-Butyl-3-[2-(cyclopentylamino)-4-pyrimidinyl]-2-(4-fluorophenyl)pyrazolo[1,5-α]pyridin-7-amine], for which half-maximal inhibition (IC50) required 0.2 µM.

The compound `CCCCNc1cccc2c(-c3ccnc(NC4CCCC4)n3)c(-c3ccc(Br)cc3)nn12` [Example 10, 2-(4-Bromophenyl)-N-butyl-3-[2-(cyclopentylamino)-4-pyrimidinyl]pyrazolo[1,5-α]pyridin-7-amine] gave an IC50 of 5 µM.

Compound `O=C(NC1CCCC1)c1cc(-c2c(-c3ccc(F)cc3)nn3c(NC4CCCC4)cccc23)nc(NC2CCCC2)n1` [Example 75, N-Cyclopentyl-2-(cyclopentylamino)-6-[7-(cyclopentylamino)-2-(4-fluorophenyl)pyrazolo[1,5-α]pyridin-3-yl]pyrimidine-4-carboxamide] had a half-maximal inhibitory concentration (IC50) of over 20 µM.

Consider `Nc1nccc(-c2c(-c3ccc(F)cc3)nn3c(NC4CCCC4)cccc23)n1` [Example 12, 3-(2-Amino-4-pyrimidinyl)-N-cyclopentyl-2-(4-fluorophenyl)pyrazolo[1,5-α]pyridin-7-amine], for which the 50% inhibitory concentration (IC50) is 0.5 µM.

`CCCCNc1nccc(-c2c(-c3ccc(F)cc3)nn3c(NCCOC)cccc23)n1` [Example 48, 3-[2-(Butylamino)-4-pyrimidinyl]-2-(4-fluorophenyl)-N-(2-methoxyethyl)pyrazolo[1,5-α]pyridin-7-amine] returned an IC50 of 0.3 µM.

Regarding `Fc1ccc(-c2nn3c(N4CCCC4)cccc3c2-c2ccnc(NC3CCCC3)n2)cc1` [Example 31, N-Cyclopentyl-4-[2-(4-fluorophenyl)-7-(1-pyrrolidinyl)pyrazolo[1,5-α]pyridin-3-yl]-2-pyrimidinamine], the midpoint of inhibition, the IC50, lay at 1 µM.

Take `CN(C)Cc1cc(-c2c(-c3ccc(F)cc3)nn3c(NC4CCCC4)cccc23)nc(NC2CCCC2)n1` [Example 51, N-Cyclopentyl-3-{2-(cyclopentylamino)-6-[(dimethylamino)methyl]-4-pyrimidinyl}-2-(4-fluorophenyl)pyrazolo[1,5-α]pyridin-7-amine]: the IC50 turned out to be 5 µM.

In the case of `CN(C)c1nccc(-c2c(-c3ccc(F)cc3)nn3c(NC4CCCC4)cccc23)n1` [Example 11, N-Cyclopentyl-3-[2-(dimethylamino)-4-pyrimidinyl]-2-(4-fluorophenyl)pyrazolo[1,5-α]pyridin-7-amine], the IC50 was 1 µM.

The compound `CCCCNc1cccc2c(-c3ccnc(N4CCCC4)n3)c(-c3ccc(F)cc3)nn12` [Example 5, N-Butyl-2-(4-fluorophenyl)-3-[2-(1-pyrrolidinyl)-4-pyrimidinyl]pyrazolo[1,5-α]pyridin-7-amine] showed a half-inhibitory concentration (IC50) of 5 µM.

`CCCCNc1cccc2c(-c3ccnc(OCCN4CCOCC4)n3)c(-c3ccc(F)cc3)nn12` [Example 46, N-Butyl-2-(4-fluorophenyl)-3-{2-[2-(4-morpholinyl)ethoxy]-4-pyrimidinyl}pyrazolo[1,5-α]pyridin-7-amine] registered an IC50 of 7 µM.

For `Fc1ccc(-c2nn3c(NC4CCCC4)cccc3c2-c2cc(NC3CCCC3)ncn2)cc1` [Example 84, N-cyclopentyl-3-[6-(cyclopentylamino)pyrimidin-4-yl]-2-(4-fluorophenyl)pyrazolo[1,5-α]pyridin-7-amine], the IC50 turned out to be 1.3 µM.

With `CCCCNc1nccc(-c2c(-c3ccc(F)cc3)nn3c(-c4ccco4)cccc23)n1` [Example 78, N-Butyl-4-[2-(4-fluorophenyl)-7-(2-furyl)pyrazolo[1,5-α]pyridin-3-yl]pyrimidin-2-amine], half-maximal inhibition (IC50) required 0.95 µM.

`NNc1cc(-c2c(-c3ccc(F)cc3)nn3c(NC4CCCC4)cccc23)ccn1` [Example 30, N-Cyclopentyl-2-(4-fluorophenyl)-3-(2-hydrazino-4-pyridinyl)pyrazolo[1,5-α]pyridin-7-amine] returned a half-maximal inhibitory concentration (IC50) of 5 µM.

The compound `Fc1ccc(-c2nn3c(NC4CCCC4)cccc3c2-c2ccncc2)cc1` [Example 28, N-cyclopentyl-2-(4-fluorophenyl)-3-(4-pyridinyl)pyrazolo[1,5-α]pyridin-7-amine] showed an IC50 of 2 µM.

Take `CCCCNc1cccc2c(-c3ccnc(N4CCCC4)n3)c(-c3ccc(Br)cc3)nn12` [Example 9, 2-(4-Bromophenyl)-N-butyl-3-[2-(1-pyrrolidinyl)-4-pyrimidinyl]pyrazolo[1,5-α]pyridin-7-amine]: the IC50 worked out at 8 µM.

With `Fc1ccc(-c2nn3c(NC4CCCC4)cccc3c2-c2ccnc(NC3CCCC3)n2)cc1` [Example 1, N-cyclopentyl-3-[2-(cyclopentylamino)-4-pyrimidinyl]-2-(4-fluorophenyl)pyrazolo[1,5-α]pyridin-7-amine], inhibition was half-maximal at 0.3 µM (IC50).

In the case of `Cc1cc(-c2c(-c3ccc(F)cc3)nn3c(Cl)cccc23)nc(NC2CCCC2)n1` [Example 7, 4-[7-Chloro-2-(4-fluorophenyl)pyrazolo[1,5-α]pyridin-3-yl]-N-cyclopentyl-6-methyl-2-pyrimidinamine], the IC50 turned out to be 3.9 µM.

Regarding `CCCCNc1cccc2c(-c3ccnc(N4CCN(CCOC)CC4)n3)c(-c3ccc(F)cc3)nn12` [Example 42, N-Butyl-2-(4-fluorophenyl)-3-{2-[4-(2-methoxyethyl)-1-piperazinyl]-4-pyrimidinyl}pyrazolo[1,5-α]pyridin-7-amine], the IC50 came to 10 µM.

The compound `CN1CCN(c2cccc3c(-c4cc(-c5ccccc5)nc(NC5CCCC5)n4)c(-c4ccc(F)cc4)nn23)CC1` [Example 19, N-Cyclopentyl-4-[2-(4-fluorophenyl)-7-(4-methyl-1-piperazinyl)pyrazolo[1,5-α]pyridin-3-yl]-6-phenyl-2-pyrimidinamine hydrochloride] had an IC50 of 2.5 µM.
